Key:
PTEN mRNA [1] = test: Immunoblot of phosphorylated Akt after GeneBloc transfection of PTEN negative PC-3 cells; format: cell-based, human; conditions: PC-3 cells (PTEN negative), 30 nM, 48 h
Procedure: More particularly, HeLa cells (380.000 cells/plate) and PC-3 cells (450.000 cells/plate) were transfected in parallel on 10 cm plates. Each cell line was treated for 48 h in duplicate samples with 30 nM of PTEN GeneBloc 53 or GBC. The cell extracts were analyzed by immunoblotting for the relative amounts of p110, PTEN and phosphorylated Akt (P*-Akt) as indicated on the right. The band which migrates just above the PTEN signal was caused by unspecific reaction of the secondary antibody. […]
Cells were washed twice with cold phosphate-buffered saline and lysed at 4° C. in lysis buffer containing 20 mM Tris (pH 7.5), 137 mM NaCl, 15% (vol/vol) glycerol, 1% (vol/vol) Nonidet P-40 (NP-40), 2 mM phenylmethylsulfonyl fluoride, […], 20 mM leupeptin, 2 mM benzamidine, 1 mM sodium vanadate, 25 mM […]-glycerol phosphate, 50 mM NaF and 10 mM NaPPi. Lysates were cleared by centrifugation at 14,000× g for 5 minutes and aliquots of the lysates were analyzed for protein expression by Western-blotting: Samples were separated by SDS-PAGE and transferred to nitrocellulose-filters (Schleicher & Schuell). […] Bound antibody was detected using anti-mouse- or anti-rabbit-conjugated horse radish peroxidase (Transduction Laboratories, BD) in TBST, washed, and developed using the SuperSignal West Dura (Pierce) or ECL (Amersham) chemoluminescence substrates. […]

3Y1 cells = test: Rate of DNA synthesis by incorporation of bromodeoxyuridine; format: cell-based, rat; conditions: synchronized in low serum, released by serum stimulation
Procedure: 3Y1 cells plated in 96-wells at 1600 cells per well were transfected in triplicate samples with GeneBloc molecules. After ca. 30 h the cells were starved in DMEM containing 10 mM HEPES (pH 7.2) under continuous GeneBloc treatment. The cells were released into the cell cycle at various time points by addition of 10% serum. Control cells were incubated with 5 μg/ml aphidicolin for 18 h. After pulse-labeling with 10 μM 5-bromo-2′-deoxyururidine (BrdU) for the last 2 h the cells were fixed and permeabilized. The relative amount of BrdU incorporated into each sample was determined by using the Cell Proliferation ELISA, BrdU (colorimetric) (Roche) according to the manufacturer's instructions. Incorporated BrdU was detected by measuring the absorbance at 405 nm and 490 nM using the Spectra Max 190 (Molecular Devices).
(§1) 3Y1 cells were used, because these untransformed rat fibroblasts are very sensitive to transfection conditons and are prone to arrest or even undergo apoptosis. Subconfluent 3Y1 cells in 96 wells were treated with PTEN GeneBloc 48, GeneBloc 53 or GBC as a control. On day 2 the cells were synchronized in low serum. During days 3 and 4 the cells were released into the cell cycle by serum stimulation at various time points. BrdU was added for the last 2 h of incubation. Untreated cells and cells that were treated with Aphidicolin for 24 h were used as controls. RNA knock down was analyzed in parallel samples. The rate of synthesis was determined via the amount of incorporated BrdU.

PTEN mRNA [2] = test: Relative PTEN RNA level by Taqman analysis; format: cell-based, rat; conditions: 3Y1 cells, parallel samples of BrdU experiment
Procedure: The RNA of cells transfected in 96-wells was isolated and purified using the Invisorb RNA HTS 96 kit (InVitek GmbH, Berlin). Inhibition of PTEN mRNA expression was detected by real time RT-PCR (Taqman) analysis using PTEN 5′ primer […] (SEQ ID No. 47), PTEN 3′ primer […] (SEQ ID No. 48) and the Taqman probe Fam-[…]-Tamra (SEQ ID No. 34). The reaction was carried out in 50 μl and assayed on the ABI PRISM 7700 Sequence detector (Applied Biosystems) according to the manufacturer's instructions under the following conditions: 48° C. for 30 min, 95° C. for 10 min, followed by 40 cycles of 15 sec at 95° C. and 1 min at 60° C.
as §1

## ucuccuuTTGTTTCTGcuaacga (UCUCCUUTTGTTTCTGCUAACGA; chemistry not fully specified) [PTEN 53, third generation antisense oligonucleotide (GeneBloc) against PTEN]
PTEN mRNA [1]
  phosphorylated Akt (P*-Akt) (immunoblot): generate phosphorylated Akt irrespective
PTEN mRNA [1]; listed as PTEN GeneBloc 53
  phosphorylated Akt (P*-Akt) (immunoblot): had no effect
3Y1 cells
  rate of DNA synthesis (incorporated BrdU): strong increase in DNA synthesis after 18 h
PTEN mRNA [2]
  PTEN mRNA level (PTEN/actin RNA): remained downregulated

Reference: patent US20030135033A1, “Compounds and methods for the identification and/ or validation of a target” (priority 2002, published 2003)
